# Measurements reported in patent US8557793B2, “Theanine derivative, preparation method thereof, and use thereof for alleviating acne” (Amorepacific Corporation, priority 2010, dated 2013).
# Legend:
# [1] = Primary skin irritation test (closed patch test); type: in vivo, human; settings: for Extent of Skin Irritation: average score on scale 0 (None) to 4 (Extreme), aqueous solution, closed patch on lower arm, 20 subjects, after one day; for safety to the skin (in words): summary of Table 3
# From the text: An aqueous solution of each theanine derivative of examples 1, 2 and 3 was applied on the lower part of the arm of 20 healthy male and female subjects according to the closed patch test method. The arm was covered with a plastic cap to block external stimuli. All numeral designations in Table 3 are averages of the irritations calculated according to the evaluation method of Table 2. [table]
# S. Epidermidis = experiment: Selective anti-bacterial test, count of germs after shaking culture with sample; type: cell-based; settings: for S. Epidermidis (%) count of germs: count of germs in control group without sample defined as 100%, shaking culture at 32° C. for one day; for change in the count of S. Epidermidis (in words): summary of Table 1
# Experimental: (§1) Each sample was added to an aqueous solution of 1% peptone and sterilized. 20 μl/ml of a test germ solution was injected into the sample-containing sterilized aqueous solution of peptone and then subjected to shaking culture at 32° C. for one day. The test germs selected were P. acnes known as present in the skin and harmful to the skin and S. Epidermidis known as relatively harmless to the skin. The solution after the shaking culture was diluted to 1/100 with normal diluting water. 0.1 ml of the diluted solution was placed on a Petri dish and then […]. To the diluted solution was poured TS agar cooled down to about 50° C. The Petri dish hardened with the TS agar was subjected to anaerobic culture at 35° C. for one day to measure the count of the germs. The P. acnes group was subjected to anaerobic culture at 35° C. for one day and then diluted to 1/100 with normal diluting water. 0.1 ml of the diluted solution was placed on a Petri dish, hardened with BHI agar, and subjected to anaerobic culture at 35° C. for 3 days to count the germs. As comparative groups, theanine and maltose were used for the testing. The count of germs in the control group without containing the sample was defined as 100%.
# P. acnes = experiment: as above; type: cell-based, Propionibacterium acnes; settings: for P. acnes (%) count of germs: count of germs in control group without sample defined as 100%, shaking culture at 32° C. for one day; for change in the count of P. acnes (in words): summary of Table 1
# Experimental: as §1
Compound,Extent of Skin Irritation [1],safety to the skin (in words) [1],S. Epidermidis (%) count of germs (S. Epidermidis),change in the count of S. Epidermidis (in words) (S. Epidermidis),P. acnes (%) count of germs (P. acnes),change in the count of P. acnes (in words) (P. acnes)
"CCNC(=O)CC[C@H](NCC1(O)OC[C@@H](O)C(O[C@H]2O[C@H](CO)[C@@H](O)[C@H](O)[C@H]2O)[C@@H]1O)C(=O)O (stereo partly shown) [Example 1, Maltulosyl Theanine]",0.1,safe to the skin,83%,no significant change,9%,reduced count
"CCNC(=O)CC[C@H](N)C(=O)O [Theanine, theanine]",,,98%,,50%,
"CCN(CC)C(=O)CC[C@H](NCC1(O)OC[C@@H](O)C(O[C@H]2O[C@H](CO)[C@@H](O)[C@H](O)[C@H]2O)[C@@H]1O)C(=O)O (stereo partly shown) [Example 3, Maltulosyl N-Ethyl Theanine]",0.1,safe to the skin,86%,no significant change,15%,reduced count
"OC[C@H]1O[C@H](O[C@H]2[C@H](O)[C@@H](O)C(O)O[C@@H]2CO)[C@H](O)[C@@H](O)[C@@H]1O (mixture of isomers) [Maltose, maltose, reference compound]",,,89%,,110%,
"CCNC(=O)CC[C@H](NCC1(O)OC[C@@H](O)C(O[C@H]2O[C@H](CO)[C@@H](O)[C@H](O)[C@H]2O)[C@@H]1O)C(=O)OC (stereo partly shown) [Example 2, Maltulosyl Theanine Methyl Ester]",0.2,safe to the skin,93%,no significant change,27%,reduced count
